Experimental findings from patent publication US20100021940A1, “Method for Determining the Activity of a Protease in a Sample” (ASTRAZENECA AB, priority 2006, published 2010) are described below.

One test has as its system MMP19. As to the kind of experiment: Activity of purified MMP on substrate (reporter release). The format is biochemical, human. As to conditions: 30 μM substrate; MMP Conc. 19 nM; AZL0095. The source says:
(§1) In order to confirm the specificity of the substrates for various MMPs, standard enzymatic assays were adapted to monitor the release of reporter. The reporter was either analysed by a LC-MS method as described in Example 3a, or by a LC-UV method as described in Example 4.
Recombinant human MMP19 catalytic domain may be expressed and purified as described by Parkar A. A. et al, (2000), Protein Expression and Purification, 20:152. The purified enzyme can be used to monitor activity of substrates as follows: MMP19 (40 ng/ml […]) in assay buffer (0.1M “Tris-HCl” (trade mark) buffer, pH 7.3 containing 0.1M NaCl, 20 mM CaCl2, 0.020 mM ZnCl and 0.05% (w/v) “Brij 35” (trade mark) detergent) in the presence or absence of inhibitors. Activity is determined by measuring the release of reporter 4-nitroaniline by the using the method in Example 3a.

The next test has as its system MMPs. The test is described as follows: Cleavage of separated diastereomers by MMPs to liberate the reporter. The format is biochemical.
Another test addresses T1, MMP8 (Homo sapiens, UniProt P22894).
T1 construct: purchased Calbiochem
As to the kind of experiment: Activity of purified MMP on substrate (reporter release). In kind it is biochemical. The procedure: In order to confirm the specificity of the substrates for various MMPs, standard enzymatic assays were adapted to monitor the release of reporter. The reporter was either analysed by a LC-MS method as described in Example 3a, or by a LC-UV method as described in Example 4. Purified pro-MMP8 is purchased from Calbiochem. The enzyme (at 10 μg/ml) is activated by p-amino-phenyl-mercuric acetate (APMA) at 1 mM for 2.5 h, 35° C. The activated enzyme can be used to monitor activity of substrates as follows: MMP8 (200 ng/ml final concentration) is incubated for 90 minutes at 35° C.

Another test deals with T2, MMP12 (Homo sapiens, UniProt P39900).
T2 construct: Recombinant human MMP12 catalytic domain may be expressed and purified; made in house
The test is described as above. In kind it is biochemical. As to conditions: 30 μM substrate; MMP Conc. 0.27 nM; ABL010827.
Text: as §1
Recombinant human MMP12 catalytic domain may be expressed and purified as described by Parkar A. A. et al, (2000), Protein Expression and Purification, 20, 152. The purified enzyme can be used to monitor activity of substrates as follows: MMP12 (50 ng/ml final […]) in assay buffer (0.1M “Tris-HCl” (trade mark) buffer, pH 7.3 containing 0.1M NaCl, 20 mM CaCl2, 0.020 mM ZnCl and 0.05% (w/v) “Brij 35” (trade mark) detergent) in the presence or absence of inhibitors. Activity is determined by measuring the release of reporter 4-nitroaniline by the using the method in Example 3a.

T1 sequence (P22894 101-467): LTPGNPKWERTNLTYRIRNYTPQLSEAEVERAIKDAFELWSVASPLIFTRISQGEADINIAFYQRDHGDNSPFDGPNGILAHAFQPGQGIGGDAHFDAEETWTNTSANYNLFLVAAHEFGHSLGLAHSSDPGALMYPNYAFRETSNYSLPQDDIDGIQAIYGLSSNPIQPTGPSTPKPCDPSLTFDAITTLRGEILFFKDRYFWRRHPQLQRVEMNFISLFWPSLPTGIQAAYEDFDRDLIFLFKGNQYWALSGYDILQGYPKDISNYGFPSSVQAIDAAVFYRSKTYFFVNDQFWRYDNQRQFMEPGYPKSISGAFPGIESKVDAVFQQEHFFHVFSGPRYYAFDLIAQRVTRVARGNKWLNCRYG
T2 sequence (P39900 106-263 limits assumed): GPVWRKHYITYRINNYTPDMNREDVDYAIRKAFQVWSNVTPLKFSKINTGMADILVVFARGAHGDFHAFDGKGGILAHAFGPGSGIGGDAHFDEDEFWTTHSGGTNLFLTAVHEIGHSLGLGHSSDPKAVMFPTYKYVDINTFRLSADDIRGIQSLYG

Consider `COC(=O)CCNC(=O)[C@H](CC(C)C)NC(=O)[C@@H](NC(=O)CNC(=O)[C@H](CC(C)C)NC(=O)[C@@H]1CCCN1C(C)=O)Nc1ccc([N+](=O)[O-])cc1` [Example 1.1, Methyl 1-acetyl-L-prolyl-L-leucylglycyl-α-R-(4-nitrophenylamino)-glycyl-L-leucyl-β-alaninate], for which the Activity with MMP19 was determined as 0.13 units/s; at MMP8 (30 μM substrate, MMP Conc. 2.7 nM, Calbiochem #444229), 1.1 units/s; on MMP12, 7.7 units/s. In addition, the “Cleavage by MMPs to liberate the reporter” value with MMPs is given as “rapidly cleaved by MMPs”. Moreover, the “Activity of selected substrates with MMPs” value on MMP8 (Table 1b, MMP8) is reported as 120.4 units/s (molRXH/molEnz * s).
